Legend:
[1] = system: MET phosphorylation (Y1234/1235) in OVCA429 cells; assay: Western blot of HGF-stimulated MET phosphorylation in OVCA429 cells; format: cell-based, human; conditions: for effect on MET phosphorylation: OVCA429 cells, 0.1, 0.5 or 1 μM pre-treatment 1 hr, 100 ng/ml HGF stimulation, Western blot densitometry
Description: Cells were serum-starved in media containing 0.1% fetal bovine serum ~16 hrs before the assay. […] Phosphorylation was then stimulated with 100 ng/ml HGF diluted in RPMI with 1 mg/ml BSA for 5 min at 37°C. Cell lysates were then prepared and run on a gel as described above. Western blot analysis was performed as described above using the MET and phospho-MET primary antibodies (1:1000). Total MET and phospho-MET expression was quantified using densitometry (ImageJ).

[2] = target: recombinant human MET (Homo sapiens, UniProt P08581); assay: z'-LYTE FRET kinase activity assay, MET
Description: (§1) The Tyr6 peptide kit was used to measure MET, RON, and AXL activity. The Tyr4 peptide kit was used for PDGFRα and the Tyr1 peptide kit was used to measure KDR activity. All assays were run in accordance with the manufacturer’s instructions, with minor modification. Briefly, MET, RON, and KDR were used at 0.2 μg/ml, 0.8 μg/ml, and 0.7 μg/ml, respectively. The kinase reaction buffer for MET, RON, and KDR was supplemented with 0.67% DMSO. AXL was used at 1.5 μg/ml and the reaction buffer was supplemented with 0.01% sodium azide and 0.67% DMSO. PDGFRα was used at 2.5 μg/ml and the reaction buffer was supplemented with 1mM DTT, 2mM MnCl2, and 0.67% DMSO. Inhibitors were prepared by 4-fold serial dilution at 75X the final concentration in 100% DMSO (8 μM to 0.1 nM). This stock was then diluted to 3X the final concentration in kinase reaction buffer. 5 μl of the 3X stock was added to the final 15 μl reaction volume. Both the z´-LYTE control phosho-peptide and the z´-LYTE peptide were used at a final concentration of 2 μM. […] Development reagent was then incubated for 1 hour at room temperature. […] IC50 values were obtained by fitting the dose-response curves using Prism 6 (GraphPad).

[3] = target: recombinant Human PDGFRα (Homo sapiens, UniProt P16234); assay: z'-LYTE FRET kinase activity assay, PDGFRα
Description: as §1

[4] = target: recombinant Human RON (Homo sapiens, UniProt Q04912); assay: z'-LYTE FRET kinase activity assay, RON
Description: as §1

[5] = target: T1, recombinant human AXL (Homo sapiens, UniProt P30530); assay: z'-LYTE FRET kinase activity assay, AXL
T1 sequence (P30530 26-894): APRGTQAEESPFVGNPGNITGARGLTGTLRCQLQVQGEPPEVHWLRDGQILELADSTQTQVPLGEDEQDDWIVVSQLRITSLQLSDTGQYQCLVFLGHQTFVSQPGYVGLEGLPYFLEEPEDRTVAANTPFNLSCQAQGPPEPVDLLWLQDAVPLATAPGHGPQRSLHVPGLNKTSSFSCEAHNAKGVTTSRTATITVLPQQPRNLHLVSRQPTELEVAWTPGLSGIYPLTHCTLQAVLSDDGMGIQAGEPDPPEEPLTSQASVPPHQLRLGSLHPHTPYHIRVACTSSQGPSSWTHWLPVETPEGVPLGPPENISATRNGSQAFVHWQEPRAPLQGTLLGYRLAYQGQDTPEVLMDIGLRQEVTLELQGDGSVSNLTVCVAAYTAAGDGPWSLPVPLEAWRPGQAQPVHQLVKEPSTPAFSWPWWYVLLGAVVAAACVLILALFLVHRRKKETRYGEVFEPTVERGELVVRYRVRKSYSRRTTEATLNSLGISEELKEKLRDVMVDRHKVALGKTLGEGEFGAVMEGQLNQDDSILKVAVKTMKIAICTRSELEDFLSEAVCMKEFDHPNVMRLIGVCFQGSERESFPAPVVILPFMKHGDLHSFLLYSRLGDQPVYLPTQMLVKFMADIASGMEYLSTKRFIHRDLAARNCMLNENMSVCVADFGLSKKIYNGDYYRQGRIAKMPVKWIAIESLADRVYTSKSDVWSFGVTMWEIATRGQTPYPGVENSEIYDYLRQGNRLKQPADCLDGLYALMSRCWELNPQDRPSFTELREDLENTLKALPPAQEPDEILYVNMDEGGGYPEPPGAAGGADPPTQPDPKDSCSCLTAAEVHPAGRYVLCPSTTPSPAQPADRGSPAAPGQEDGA
Description: as §1

[6] = target: recombinant Human KDR (Homo sapiens, UniProt P35968); assay: z'-LYTE FRET kinase activity assay, KDR
Description: as §1

[7] = Foretinib-TCO (11) IC50 value divided by Foretinib IC50 value

recombinant human MET, sequence (P08581 25-1390): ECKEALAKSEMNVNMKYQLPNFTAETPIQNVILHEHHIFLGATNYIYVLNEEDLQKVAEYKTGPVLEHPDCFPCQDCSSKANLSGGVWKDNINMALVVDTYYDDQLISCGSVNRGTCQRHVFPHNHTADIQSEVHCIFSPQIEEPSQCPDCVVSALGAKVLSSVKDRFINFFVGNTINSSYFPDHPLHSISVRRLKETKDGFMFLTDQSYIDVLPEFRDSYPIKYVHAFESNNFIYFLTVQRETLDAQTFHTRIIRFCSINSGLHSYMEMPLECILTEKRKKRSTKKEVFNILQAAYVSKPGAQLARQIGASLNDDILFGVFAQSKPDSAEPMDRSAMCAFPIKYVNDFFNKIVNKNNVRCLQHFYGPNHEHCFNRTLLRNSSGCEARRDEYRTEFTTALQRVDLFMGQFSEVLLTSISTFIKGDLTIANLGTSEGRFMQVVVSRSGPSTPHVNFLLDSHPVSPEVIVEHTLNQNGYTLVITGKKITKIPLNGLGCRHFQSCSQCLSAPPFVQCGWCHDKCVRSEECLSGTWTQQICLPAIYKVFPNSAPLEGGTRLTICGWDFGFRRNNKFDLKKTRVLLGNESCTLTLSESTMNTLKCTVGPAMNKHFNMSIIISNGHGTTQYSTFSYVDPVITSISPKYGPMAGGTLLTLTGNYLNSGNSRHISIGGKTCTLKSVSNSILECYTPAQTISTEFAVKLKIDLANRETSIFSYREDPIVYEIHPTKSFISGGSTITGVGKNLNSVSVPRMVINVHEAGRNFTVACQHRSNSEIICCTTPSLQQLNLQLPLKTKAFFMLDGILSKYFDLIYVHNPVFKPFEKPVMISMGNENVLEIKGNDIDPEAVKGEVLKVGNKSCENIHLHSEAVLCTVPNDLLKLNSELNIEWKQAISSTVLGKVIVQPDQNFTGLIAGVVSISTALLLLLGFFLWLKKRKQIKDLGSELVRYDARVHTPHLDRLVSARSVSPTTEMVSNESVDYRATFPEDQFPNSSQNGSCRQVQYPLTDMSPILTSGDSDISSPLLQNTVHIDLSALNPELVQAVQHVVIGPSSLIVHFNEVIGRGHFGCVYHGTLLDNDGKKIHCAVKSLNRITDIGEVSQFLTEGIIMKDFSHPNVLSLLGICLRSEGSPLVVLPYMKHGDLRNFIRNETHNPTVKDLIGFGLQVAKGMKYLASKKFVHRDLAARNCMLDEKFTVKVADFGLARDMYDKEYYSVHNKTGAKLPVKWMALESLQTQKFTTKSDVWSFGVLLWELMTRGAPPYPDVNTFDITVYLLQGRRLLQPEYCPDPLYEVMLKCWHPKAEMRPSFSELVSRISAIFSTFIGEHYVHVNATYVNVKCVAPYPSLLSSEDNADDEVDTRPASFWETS
recombinant Human KDR, sequence (P35968 20-1356): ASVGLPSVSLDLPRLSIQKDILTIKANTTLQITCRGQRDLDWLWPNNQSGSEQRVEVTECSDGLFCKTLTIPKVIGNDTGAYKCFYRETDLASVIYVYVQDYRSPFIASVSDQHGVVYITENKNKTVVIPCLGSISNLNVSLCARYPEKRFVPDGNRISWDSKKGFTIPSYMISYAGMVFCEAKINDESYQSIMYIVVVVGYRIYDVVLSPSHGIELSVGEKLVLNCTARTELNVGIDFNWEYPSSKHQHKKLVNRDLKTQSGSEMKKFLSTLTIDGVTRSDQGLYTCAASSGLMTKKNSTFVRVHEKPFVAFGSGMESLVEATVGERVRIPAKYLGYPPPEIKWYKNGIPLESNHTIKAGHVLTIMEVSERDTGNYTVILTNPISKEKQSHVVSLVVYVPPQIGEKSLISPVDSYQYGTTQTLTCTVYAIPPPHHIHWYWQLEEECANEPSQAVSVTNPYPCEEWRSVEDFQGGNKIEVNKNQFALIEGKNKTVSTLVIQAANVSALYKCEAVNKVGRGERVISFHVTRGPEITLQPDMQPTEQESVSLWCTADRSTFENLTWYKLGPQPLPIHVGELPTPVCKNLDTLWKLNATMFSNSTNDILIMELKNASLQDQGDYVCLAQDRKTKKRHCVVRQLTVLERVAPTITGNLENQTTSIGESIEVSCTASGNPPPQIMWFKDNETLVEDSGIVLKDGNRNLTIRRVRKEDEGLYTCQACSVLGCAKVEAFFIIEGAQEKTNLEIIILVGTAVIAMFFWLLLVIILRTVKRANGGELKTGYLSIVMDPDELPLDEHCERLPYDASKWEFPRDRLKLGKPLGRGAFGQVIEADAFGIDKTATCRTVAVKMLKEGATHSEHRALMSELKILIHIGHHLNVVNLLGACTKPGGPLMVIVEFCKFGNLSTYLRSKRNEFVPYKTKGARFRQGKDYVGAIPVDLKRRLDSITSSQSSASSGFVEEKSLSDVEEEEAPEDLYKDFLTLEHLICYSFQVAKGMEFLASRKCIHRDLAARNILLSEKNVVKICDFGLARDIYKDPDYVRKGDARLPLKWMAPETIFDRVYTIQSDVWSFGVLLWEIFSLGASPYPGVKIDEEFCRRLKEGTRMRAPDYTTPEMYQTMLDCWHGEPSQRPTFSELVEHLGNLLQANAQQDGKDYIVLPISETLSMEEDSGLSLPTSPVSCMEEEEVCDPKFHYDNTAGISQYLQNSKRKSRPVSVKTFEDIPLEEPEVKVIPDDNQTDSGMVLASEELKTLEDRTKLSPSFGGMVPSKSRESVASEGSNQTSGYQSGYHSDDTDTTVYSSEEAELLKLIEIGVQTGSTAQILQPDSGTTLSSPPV
recombinant Human RON, sequence (Q04912 25-1400): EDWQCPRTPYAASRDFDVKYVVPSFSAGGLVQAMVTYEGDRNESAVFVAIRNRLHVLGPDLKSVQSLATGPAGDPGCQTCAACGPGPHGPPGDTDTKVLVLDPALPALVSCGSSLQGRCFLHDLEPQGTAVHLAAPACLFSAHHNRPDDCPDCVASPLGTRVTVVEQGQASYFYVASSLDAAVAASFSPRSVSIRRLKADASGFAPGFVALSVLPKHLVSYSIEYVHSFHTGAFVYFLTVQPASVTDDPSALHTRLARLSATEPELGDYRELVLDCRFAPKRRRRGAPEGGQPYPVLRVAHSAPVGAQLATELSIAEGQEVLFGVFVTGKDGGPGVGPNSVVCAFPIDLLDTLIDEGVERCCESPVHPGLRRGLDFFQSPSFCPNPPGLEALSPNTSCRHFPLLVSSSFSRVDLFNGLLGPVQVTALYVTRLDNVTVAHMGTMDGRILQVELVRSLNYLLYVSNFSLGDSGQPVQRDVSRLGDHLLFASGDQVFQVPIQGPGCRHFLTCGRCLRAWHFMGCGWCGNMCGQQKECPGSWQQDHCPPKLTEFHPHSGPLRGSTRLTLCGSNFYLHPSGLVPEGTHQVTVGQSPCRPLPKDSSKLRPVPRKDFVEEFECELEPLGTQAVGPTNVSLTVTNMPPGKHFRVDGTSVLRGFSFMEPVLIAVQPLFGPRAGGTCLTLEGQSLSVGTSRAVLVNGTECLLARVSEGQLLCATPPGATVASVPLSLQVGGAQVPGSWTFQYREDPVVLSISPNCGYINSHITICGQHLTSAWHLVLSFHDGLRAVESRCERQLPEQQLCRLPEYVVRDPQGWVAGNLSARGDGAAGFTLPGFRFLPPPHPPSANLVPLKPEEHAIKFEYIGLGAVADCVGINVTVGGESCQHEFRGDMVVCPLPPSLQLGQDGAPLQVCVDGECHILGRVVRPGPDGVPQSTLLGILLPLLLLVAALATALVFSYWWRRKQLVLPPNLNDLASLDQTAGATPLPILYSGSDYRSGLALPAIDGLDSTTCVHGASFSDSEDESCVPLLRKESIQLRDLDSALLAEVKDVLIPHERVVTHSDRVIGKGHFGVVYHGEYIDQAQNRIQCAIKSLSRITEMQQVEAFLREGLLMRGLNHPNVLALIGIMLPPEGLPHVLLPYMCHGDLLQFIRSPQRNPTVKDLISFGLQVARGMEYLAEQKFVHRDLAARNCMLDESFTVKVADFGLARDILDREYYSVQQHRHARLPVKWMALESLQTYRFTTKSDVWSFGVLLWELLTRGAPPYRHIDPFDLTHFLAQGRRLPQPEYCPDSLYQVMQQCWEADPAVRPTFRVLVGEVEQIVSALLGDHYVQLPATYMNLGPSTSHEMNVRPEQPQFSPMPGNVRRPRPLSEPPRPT
recombinant Human PDGFRα, sequence (P16234 24-1089): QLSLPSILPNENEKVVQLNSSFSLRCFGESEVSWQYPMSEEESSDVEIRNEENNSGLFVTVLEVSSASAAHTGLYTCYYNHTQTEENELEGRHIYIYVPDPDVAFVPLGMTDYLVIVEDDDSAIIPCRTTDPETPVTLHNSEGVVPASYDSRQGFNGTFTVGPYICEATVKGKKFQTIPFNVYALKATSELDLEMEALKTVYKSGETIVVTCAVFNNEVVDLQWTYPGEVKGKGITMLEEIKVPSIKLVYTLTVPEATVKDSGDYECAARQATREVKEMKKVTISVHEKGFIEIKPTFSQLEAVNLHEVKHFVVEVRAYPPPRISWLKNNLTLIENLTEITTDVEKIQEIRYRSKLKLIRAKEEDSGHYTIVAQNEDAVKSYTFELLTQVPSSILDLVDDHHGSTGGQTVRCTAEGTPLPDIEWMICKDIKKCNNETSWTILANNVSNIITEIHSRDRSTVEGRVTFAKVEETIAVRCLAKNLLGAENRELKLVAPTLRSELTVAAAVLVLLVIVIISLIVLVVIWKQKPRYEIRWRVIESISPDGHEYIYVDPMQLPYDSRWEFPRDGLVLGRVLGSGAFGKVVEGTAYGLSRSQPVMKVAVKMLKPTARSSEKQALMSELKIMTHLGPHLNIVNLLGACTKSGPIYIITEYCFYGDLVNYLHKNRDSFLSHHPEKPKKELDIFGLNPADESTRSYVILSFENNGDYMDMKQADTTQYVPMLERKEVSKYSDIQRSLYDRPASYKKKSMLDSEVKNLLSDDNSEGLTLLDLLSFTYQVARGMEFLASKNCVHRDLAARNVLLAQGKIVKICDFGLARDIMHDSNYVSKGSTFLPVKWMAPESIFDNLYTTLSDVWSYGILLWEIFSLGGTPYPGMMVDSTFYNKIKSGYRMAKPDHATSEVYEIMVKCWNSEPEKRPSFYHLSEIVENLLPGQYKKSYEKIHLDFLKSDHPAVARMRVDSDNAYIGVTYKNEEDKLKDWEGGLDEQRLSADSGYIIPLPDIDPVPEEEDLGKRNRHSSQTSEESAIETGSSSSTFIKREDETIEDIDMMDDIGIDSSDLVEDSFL

SMILES: COc1cc2c(Oc3ccc(NC(=O)C4(C(=O)Nc5ccc(F)cc5)CC4)cc3F)ccnc2cc1OCCCN1CCOCC1 [Foretinib, N1’-[3-fluoro-4-[[6-methoxy-7-(3-morpholinopropoxy)-4-quinolinyl]oxy]phenyl]-N1-(4-fluorophenyl)cyclopropane-1,1-dicarboxamide, reference compound]
- effect on MET phosphorylation [1]: complete decrease in MET phosphorylation

SMILES: COc1cc2c(Oc3ccc(NC(=O)C4(C(=O)Nc5ccc(F)cc5)CC4)cc3F)ccnc2cc1OCCCN1CCN(C(=O)CCc2ccc3n2[B-](F)(F)[N+]2=C(C)C=C(C)C2=C3)CC1 [Foretinib-BODIPY-FL, 5,5-difluoro-7-(3-(4-(3-((4-(2-fluoro-4-(1-((4-fluorophenyl)carbamoyl)cyclopropanecarboxamido)phenoxy)-6-methoxyquinolin-7-yl)oxy)propyl)piperazin-1-yl)-3-oxopropyl)-1,3-dimethyl-5H-dipyrrolo[1,2-c:2',1'-f][1,3,2]diazaborinin-4-ium-5-uide]
- IC50 [2]: 697 nM
- change of MET IC50 relative to Foretinib (loss in drug activity) ([2]; from 28.7 nM to 697.4 nM): over 24 fold
- effect on MET phosphorylation [1]: decrease in MET phosphorylation

SMILES: COc1cc2c(Oc3ccc(NC(=O)C4(C(=O)Nc5ccc(F)cc5)CC4)cc3F)ccnc2cc1OCCCN1CCN(C(=O)OC2CC/C=C/CCC2)CC1 (centres unmarked) [Foretinib-TCO, (E)-cyclooct-4-en-1-yl 4-(3-((4-(2-fluoro-4-(1-((4-fluorophenyl)carbamoyl)cyclopropanecarboxamido)phenoxy)-6-methoxyquinolin-7-yl)oxy)propyl)piperazine-1-carboxylate]
- IC50 [2]: 88.6 nM
- Fold Change (TCO/Foretinib) MET [2, 7]: 3.1
- IC50 [3]: 265 nM
- Fold Change (TCO/Foretinib) PDGFRα [3, 7]: 4.5
- effect on MET phosphorylation [1]: decrease in MET phosphorylation
- potency in decreasing MET phosphorylation compared with the BODIPY-FL (12) version ([1]; OVCA429 cells, 0.1-1 μM, HGF stimulation, Western blot): greater potency
- IC50 [4]: 82.7 nM
- Fold Change (TCO/Foretinib) RON [4, 7]: 4.1
- IC50 [5]: 72.5 nM
- Fold Change (TCO/Foretinib) AXL [5, 7]: 3.4
- IC50 [6]: 150 nM
- Fold Change (TCO/Foretinib) KDR [6, 7]: 6.2

SMILES: O=C(NCCn1cc(-c2cnc3nnn(Cc4ccc5ncccc5c4)c3n2)cn1)OC1CC/C=C/CCC1 (centres unmarked) [PF04217903-TCO, (E)-cyclooct-4-en-1-yl (2-(4-(1-(quinolin-6-ylmethyl)-1H-[1,2,3]triazolo[4,5-b]pyrazin-6-yl)-1H-pyrazol-1-yl)ethyl)carbamate]
- IC50 [2]: 1.48 nM

Reference: PMC3827223, “Bioorthogonal Small Molecule Imaging Agents Allow Single-Cell Imaging of MET” (PLoS ONE, 2013)
